Like-named read-outs stand apart in the source and are kept apart here.
What was measured:
S. aureus RN450 = test: In Vitro Anti-Bacterial Activity Assay (MIC), gram positive; format: cell-based; conditions: Staphylococcus aureus, RN450, 18 h, gram positive bacteria; read-out: Antibiotic Activity Gram + (MIC)
E. coli mL308 225 = test: In Vitro Anti-Bacterial Activity Assay (MIC), gram negative; format: cell-based; conditions: Escherichia coli, ML308225, 18 h, read-out: Antibiotic Activity Gram − (MIC)

Row | SMILES | MIC (S. aureus RN450) | MIC (E. coli mL308 225; gram negative bacteria) | MIC (E. coli mL308 225)
1 | CN(C)[C@@H]1C(O)=C(C(N)=O)C(=O)[C@@]2(O)C(O)=C3C(=O)c4c(ccc(N5CCCCC5)c4O)C[C@H]3C[C@@H]12 | > 4 µg/mL | > 4 µg/mL | 
2 | CN(C)Cc1cc(N(C)C)c2c(c1O)C(=O)C1=C(O)[C@]3(O)C(=O)C(C(N)=O)=C(O)[C@@H](N(C)C)[C@@H]3C[C@@H]1C2 | < 4 µg/mL | > 4 µg/mL | 
3 | CN1C=CC(Nc2cc(C3=COCC3)c3c(c2O)C(=O)C2=C(O)[C@]4(O)C(=O)C(C(N)=O)=C(O)[C@@H](N(C)C)[C@@H]4C[C@@H]2C3)CC1 (stereo partly shown) | < 4 µg/mL | > 4 µg/mL | 
4 | C[C@H]1c2ccc(NC3CC(C)(C)NC(C)(C)C3)c(O)c2C(=O)C2=C(O)[C@]3(O)C(=O)C(C(N)=O)=C(O)[C@@H](N(C)C)[C@@H]3[C@@H](O)[C@@H]21 | < 4 µg/mL | > 4 µg/mL | 
5 | CC(CF)NCc1cc(N(C)C)c2c(c1O)C(=O)C1=C(O)[C@]3(O)C(=O)C(C(N)=O)=C(O)[C@@H](N(C)C)[C@@H]3C[C@@H]1C2 (stereo partly shown) | < 4 µg/mL |  | > 4 µg/mL
6 | CN(C)c1cc(CNC2CCCC2)c(O)c2c1C[C@H]1C[C@H]3[C@H](N(C)C)C(O)=C(C(N)=O)C(=O)[C@@]3(O)C(O)=C1C2=O | < 4 µg/mL | > 4 µg/mL | 
7 | CC(CCO)NCc1cc(N(C)C)c2c(c1O)C(=O)C1=C(O)[C@]3(O)C(=O)C(C(N)=O)=C(O)[C@@H](N(C)C)[C@@H]3C[C@@H]1C2 (stereo partly shown) | < 4 µg/mL | > 4 µg/mL | 
8 | CN(C)CCN(C)Cc1ccc(-c2cc(N(C)C)c3c(c2O)C(=O)C2=C(O)[C@]4(O)C(=O)C(C(N)=O)=C(O)[C@@H](N(C)C)[C@@H]4C[C@@H]2C3)[nH]1 | > 4 µg/mL | > 4 µg/mL | 
9 | CCNCC(=O)NCc1cc(N(C)C)c2c(c1O)C(=O)C1=C(O)[C@]3(O)C(=O)C(C(N)=O)=C(O)[C@@H](N(C)C)[C@@H]3C[C@@H]1C2 | > 4 µg/mL | > 4 µg/mL | 
10 | CN1CCC(NCc2cc(N(C)C)c3c(c2O)C(=O)C2=C(O)[C@]4(O)C(=O)C(C(N)=O)=C(O)[C@@H](N(C)C)[C@@H]4C[C@@H]2C3)CC1 | > 4 µg/mL | > 4 µg/mL | 
11 | CN(C)c1cc(CNC(=O)C(Cc2ccccc2)N(C)C)c(O)c2c1C[C@H]1C[C@H]3[C@H](N(C)C)C(O)=C(C(N)=O)C(=O)[C@@]3(O)C(O)=C1C2=O (stereo partly shown) | < 4 µg/mL | > 4 µg/mL | 
12 | CN(C)c1cc(CNCC2CCNCC2)c(O)c2c1C[C@H]1C[C@H]3[C@H](N(C)C)C(O)=C(C(N)=O)C(=O)[C@@]3(O)C(O)=C1C2=O | > 4 µg/mL | > 4 µg/mL | 
13 | CN(C)c1cc(CNCC2CCOCC2)c(O)c2c1C[C@H]1C[C@H]3[C@H](N(C)C)C(O)=C(C(N)=O)C(=O)[C@@]3(O)C(O)=C1C2=O | < 4 µg/mL | > 4 µg/mL | 
14 | CN(C)[C@@H]1C(O)=C(C(N)=O)C(=O)[C@@]2(O)C(O)=C3C(=O)c4c(O)ccc(C#N)c4C[C@H]3C[C@@H]12 | < 4 µg/mL | < 4 µg/mL | 
15 | CN(C)[C@@H]1C(O)=C(C(N)=O)C(=O)[C@@]2(O)C(O)=C3C(=O)c4c(O)ccc(-c5ccc(CNC6CC6)o5)c4C[C@H]3C[C@@H]12 | < 4 µg/mL | < 4 µg/mL | 
16 | COC(=O)C1CCN(Cc2ccc(-c3ccc(O)c4c3C[C@H]3C[C@H]5[C@H](N(C)C)C(O)=C(C(N)=O)C(=O)[C@@]5(O)C(O)=C3C4=O)cc2)CC1 | < 4 µg/mL | < 4 µg/mL | 
17 | CN(C)c1cc(CNCc2cc[n+]([O-])cc2)c(O)c2c1C[C@H]1C[C@H]3[C@H](N(C)C)C(O)=C(C(N)=O)C(=O)[C@@]3(O)C(O)=C1C2=O | > 4 µg/mL | > 4 µg/mL | 
18 | CN(C)c1cc(CN(Cc2ccn[nH]2)Cc2ccn[nH]2)c(O)c2c1C[C@H]1C[C@H]3[C@H](N(C)C)C(O)=C(C(N)=O)C(=O)[C@@]3(O)C(O)=C1C2=O | > 4 µg/mL | > 4 µg/mL | 
19 | CN(C)c1cc(CN2CCCCC2)c(O)c2c1C[C@H]1C[C@H]3[C@H](N(C)C)C(O)=C(C(N)=O)C(=O)[C@@]3(O)C(O)=C1C2=O | < 4 µg/mL | < 4 µg/mL | 
20 | CN(C)c1cc(CNC(=O)C2CCCN2)c(O)c2c1C[C@H]1C[C@H]3[C@H](N(C)C)C(O)=C(C(N)=O)C(=O)[C@@]3(O)C(O)=C1C2=O (stereo partly shown) | > 4 µg/mL | > 4 µg/mL | 
21 | CN(C)c1cc(CNC(=O)C2(N)CC2)c(O)c2c1C[C@H]1C[C@H]3[C@H](N(C)C)C(O)=C(C(N)=O)C(=O)[C@@]3(O)C(O)=C1C2=O | < 4 µg/mL | > 4 µg/mL | 
22 | CN(C)CC(=O)NCc1cc(N(C)C)c2c(c1O)C(=O)C1=C(O)[C@]3(O)C(=O)C(C(N)=O)=C(O)[C@@H](N(C)C)[C@@H]3C[C@@H]1C2 | < 4 µg/mL | > 4 µg/mL | 
23 | C#Cc1cc(CNC(=O)N2CCOCC2)c2c(c1O)C(=O)C1=C(O)[C@]3(O)C(=O)C(C(N)=O)=C(O)[C@@H](N(C)C)[C@@H]3C[C@@H]1C2 | > 4 µg/mL | > 4 µg/mL | 
24 | CN(C)c1cc(CNC(N)=O)c(O)c2c1C[C@H]1C[C@H]3[C@H](N(C)C)C(O)=C(C(N)=O)C(=O)[C@@]3(O)C(O)=C1C2=O | > 4 µg/mL | > 4 µg/mL | 

Row | SMILES | MIC (S. aureus RN450) | MIC (E. coli mL308 225; gram negative bacteria) | MIC (E. coli mL308 225)
25 | CN(C)c1cc(CNCC2CC2)c(O)c2c1C[C@H]1C[C@H]3[C@H](N(C)C)C(O)=C(C(N)=O)C(=O)[C@@]3(O)C(O)=C1C2=O | < 4 µg/mL | > 4 µg/mL | 
26 | Cc1noc(C)c1S(=O)(=O)NCc1cc(N(C)C)c2c(c1O)C(=O)C1=C(O)[C@]3(O)C(=O)C(C(N)=O)=C(O)[C@@H](N(C)C)[C@@H]3C[C@@H]1C2 | < 4 µg/mL | > 4 µg/mL | 
27 | CONCc1ccc(-c2cc(N(C)C)c3c(c2O)C(=O)C2=C(O)[C@]4(O)C(=O)C(C(N)=O)=C(O)[C@@H](N(C)C)[C@@H]4C[C@@H]2C3)[nH]1 | < 4 µg/mL | < 4 µg/mL | 
28 | CN(C)c1cc(Cn2ccc(C=O)c2)c(O)c2c1C[C@H]1C[C@H]3[C@H](N(C)C)C(O)=C(C(N)=O)C(=O)[C@@]3(O)C(O)=C1C2=O | < 4 µg/mL | > 4 µg/mL | 
29 | CCc1cc(CNC(=O)N2CCOCC2)c2c(c1O)C(=O)C1=C(O)[C@]3(O)C(=O)C(C(N)=O)=C(O)[C@@H](N(C)C)[C@@H]3C[C@@H]1C2 | > 4 µg/mL | > 4 µg/mL | 
30 | COC(=O)c1ccc2c(c1O)C(=O)C1=C(O)[C@]3(O)C(=O)C(C(N)=O)=C(O)[C@@H](N(C)C)[C@@H]3[C@@H](O)[C@@H]1[C@H]2C | > 4 µg/mL | > 4 µg/mL | 
31 | CN(C)c1cc(C(=O)N2CCOCC2)c(O)c2c1C[C@H]1C[C@H]3[C@H](N(C)C)C(O)=C(C(N)=O)C(=O)[C@@]3(O)C(O)=C1C2=O | > 4 µg/mL | > 4 µg/mL | 
32 | CN(C)c1cc(CNC(=O)[C@@H]2CCCN2C)c(O)c2c1C[C@H]1C[C@H]3[C@H](N(C)C)C(O)=C(C(N)=O)C(=O)[C@@]3(O)C(O)=C1C2=O | < 4 µg/mL | > 4 µg/mL | 
33 | C[C@H]1c2ccc(CN3CCCCC3)c(O)c2C(=O)C2=C(O)[C@]3(O)C(=O)C(C(N)=O)=C(O)[C@@H](N(C)C)[C@@H]3[C@@H](O)[C@@H]21 | < 4 µg/mL | < 4 µg/mL | 
34 | CN(C)c1cc(NCc2cc(F)cc(F)c2)c(O)c2c1C[C@H]1C[C@H]3[C@H](N(C)C)C(O)=C(C(N)=O)C(=O)[C@@]3(O)C(O)=C1C2=O | > 4 µg/mL | > 4 µg/mL | 
35 | CCCCOC(=O)c1ccc(O)c2c1C[C@H]1C[C@H]3[C@H](N(C)C)C(O)=C(C(N)=O)C(=O)[C@@]3(O)C(O)=C1C2=O | < 4 µg/mL | < 4 µg/mL | 
36 | CN(C)c1cc(NCc2ccc(C#N)cc2)c(O)c2c1C[C@H]1C[C@H]3[C@H](N(C)C)C(O)=C(C(N)=O)C(=O)[C@@]3(O)C(O)=C1C2=O | > 4 µg/mL | > 4 µg/mL | 
37 | COc1ccc(CNCCF)cc1-c1ccc(O)c2c1C[C@H]1C[C@H]3[C@H](N(C)C)C(O)=C(C(N)=O)C(=O)[C@@]3(O)C(O)=C1C2=O | < 4 µg/mL |  | > 4 µg/mL
38 | CN(C)c1cc(CNC(=O)C(C)(C)C)c(O)c2c1C[C@H]1C[C@H]3[C@H](N(C)C)C(O)=C(C(N)=O)C(=O)[C@@]3(O)C(O)=C1C2=O | < 4 µg/mL | > 4 µg/mL | 
39 | CC(=O)NCc1cc(N(C)C)c2c(c1O)C(=O)C1=C(O)[C@]3(O)C(=O)C(C(N)=O)=C(O)[C@@H](N(C)C)[C@@H]3C[C@@H]1C2 | < 4 µg/mL | > 4 µg/mL | 
40 | CN(C)c1cc(CNc2nc(-c3ccc(F)cc3)co2)c(O)c2c1C[C@H]1C[C@H]3[C@H](N(C)C)C(O)=C(C(N)=O)C(=O)[C@@]3(O)C(O)=C1C2=O | > 4 µg/mL | > 4 µg/mL | 
41 | CC(CF)Nc1ccc(-c2ccc(O)c3c2C[C@H]2C[C@H]4[C@H](N(C)C)C(O)=C(C(N)=O)C(=O)[C@@]4(O)C(O)=C2C3=O)cc1 (stereo partly shown) | < 4 µg/mL | > 4 µg/mL | 
42 | CN(C)c1cc(CNc2nc(C(F)(F)F)co2)c(O)c2c1C[C@H]1C[C@H]3[C@H](N(C)C)C(O)=C(C(N)=O)C(=O)[C@@]3(O)C(O)=C1C2=O | < 4 µg/mL | < 4 µg/mL | 
43 | CN(C)c1cc(CNCc2cc(F)c(F)c(F)c2)c(O)c2c1C[C@H]1C[C@H]3[C@H](N(C)C)C(O)=C(C(N)=O)C(=O)[C@@]3(O)C(O)=C1C2=O | < 4 µg/mL | < 4 µg/mL | 
44 | CN(C)c1cc(CNCc2ccc(C#N)cc2)c(O)c2c1C[C@H]1C[C@H]3[C@H](N(C)C)C(O)=C(C(N)=O)C(=O)[C@@]3(O)C(O)=C1C2=O | < 4 µg/mL | > 4 µg/mL | 
45 | CN(C)c1cc(CNC(CF)CF)c(O)c2c1C[C@H]1C[C@H]3[C@H](N(C)C)C(O)=C(C(N)=O)C(=O)[C@@]3(O)C(O)=C1C2=O | < 4 µg/mL |  | > 4 µg/mL
46 | CN(C)[C@@H]1C(O)=C(C(N)=O)C(=O)[C@@]2(O)C(O)=C3C(=O)c4c(O)ccc(-c5ccc(CNCCF)cc5)c4C[C@H]3C[C@@H]12 | < 4 µg/mL |  | < 4 µg/mL
47 | COc1ccc(CNc2cc(N(C)C)c3c(c2O)C(=O)C2=C(O)[C@]4(O)C(=O)C(C(N)=O)=C(O)[C@@H](N(C)C)[C@@H]4C[C@@H]2C3)cc1O | > 4 µg/mL | > 4 µg/mL | 

From patent publication US20150141381A1, “TETRACYCLINE COMPOUNDS HAVING TARGET THERAPEUTIC ACTIVITIES” (Paratek Pharmaceuticals, Inc., priority 2001, published 2015)
